# How the values were obtained:
# Format in all cases: in vivo
# Stellaria media [1] = assay: Herbicidal pre-emergence action, STEME; details: visual grading after ca. 3 weeks vs untreated controls
# Source text: (§1) Seeds of mono- and dicotyledonous weed plants were sown in plastic pots (double sowings with one species of mono- and one species of dicotyledonous weed plants per pot), in sandy loam, and covered with soil. The compounds according to the invention, formulated in the form of wettable powders (WP) or as emulsifiable concentrates (EC), were applied to the surface of the covering soil as an aqueous suspension or as an emulsion, with the addition of 0.5% of an additive, at an application rate of 600 litres of water per hectare (converted). Following treatment, the pots were placed in a greenhouse and kept under optimum growth conditions for the test plants. The visual grading of the damage to the test plants is carried out after ca. 3 weeks in comparison to untreated controls (herbicidal effect in percent (%): 100% effect=plants have died, 0% effect=as control plants). Seeds of mono- and dicotyledonous weed plants were sown in plastic pots (double sowings with one species of mono- and one species of dicotyledonous weed plants per pot), in sandy loam, and covered with soil. The compounds according to the invention, formulated in the form of wettable powders (WP) or as emulsifiable concentrates (EC), were applied to the surface of the covering soil as an aqueous suspension or as an emulsion, with the addition of 0.5% of an additive, at an application rate of 600 litres of water per hectare (converted). Following treatment, the pots were placed in a greenhouse and kept under optimum growth conditions for the test plants. The visual grading of the damage to the test plants is carried out after ca. 3 weeks in comparison to untreated controls (herbicidal effect in percent (%): 100% effect=plants have died, 0% effect=as control plants).
# Lolium rigidum [2] = assay: Herbicidal post-emergence action, LOLRI; details: assessed visually after ca. 3 weeks vs untreated controls
# Source text: (§2) Seeds of mono- and dicotyledonous weed plants were sown in plastic pots (double sowings with one species of mono- and one species of dicotyledonous weed plants per pot), in sandy loam, covered with soil and grown under controlled growth conditions. 2 to 3 weeks after sowing, the test plants were sprayed in the single-leaf stage. The compounds according to the invention, formulated in the form of wettable powders (WP) or as emulsifiable concentrates (EC), were sprayed onto the green plant parts as an aqueous suspension or as an emulsion, with the addition of 0.5% of an additive, at an application rate of 600 litres of water per hectare (converted). The test plants were placed in the greenhouse for ca. 3 weeks under optimum growth conditions, and then the effect of the preparations is assessed visually in comparison with untreated controls (herbicidal effect in percent (%): 100% effect=plants have died, 0% effect=as control plants). […]
# Abutilon theophrasti [3] = assay: Herbicidal post-emergence action, ABUTH; details: 1280 g/ha, assessed visually after ca. 3 weeks vs untreated controls
# Source text: as §2
# Kochia scoparia [4] = assay: Herbicidal post-emergence action, KCHSC; details: assessed visually after ca. 3 weeks vs untreated controls
# Source text: as §2
# Veronica persica [5] = assay: Herbicidal pre-emergence action, VERPE; details: visual grading after ca. 3 weeks vs untreated controls
# Source text: as §1
# Amaranthus retroflexus [6] = assay: Herbicidal pre-emergence action, AMARE; details: visual grading after ca. 3 weeks vs untreated controls
# Source text: as §1
# Lolium rigidum [7] = assay: Herbicidal pre-emergence action, LOLRI; details: visual grading after ca. 3 weeks vs untreated controls
# Source text: as §1
# Kochia scoparia [8] = assay: Herbicidal pre-emergence action, KCHSC; details: visual grading after ca. 3 weeks vs untreated controls
# Source text: as §1
# Poa annua [9] = assay: Herbicidal pre-emergence action, POAAN; details: visual grading after ca. 3 weeks vs untreated controls
# Source text: as §1
# Stellaria media [10] = assay: Herbicidal post-emergence action, STEME; details: assessed visually after ca. 3 weeks vs untreated controls
# Source text: as §2
# Alopecurus myosuroides [11] = assay: Herbicidal post-emergence action, ALOMY; details: assessed visually after ca. 3 weeks vs untreated controls
# Source text: as §2
# Matricaria inodora [12] = assay: Herbicidal pre-emergence action, MATIN; details: visual grading after ca. 3 weeks vs untreated controls
# Source text: as §1
# Veronica persica [13] = assay: Herbicidal post-emergence action, VERPE; details: assessed visually after ca. 3 weeks vs untreated controls
# Source text: as §2
# Poa annua [14] = assay: Herbicidal post-emergence action, POAAN; details: assessed visually after ca. 3 weeks vs untreated controls
# Source text: as §2
# Setaria viridis [15] = assay: Herbicidal post-emergence action, SETVI; details: 1280 g/ha, assessed visually after ca. 3 weeks vs untreated controls
# Source text: (§3) Seeds of mono- and dicotyledonous weed plants were sown in plastic pots (double sowings with one species of mono- and one species of dicotyledonous weed plants per pot), in sandy loam, covered with soil and grown under controlled growth conditions. 2 to 3 weeks after sowing, the test plants were sprayed in the single-leaf stage. The compounds according to the invention, formulated in the form of wettable powders (WP) or as emulsifiable concentrates (EC), were sprayed onto the green plant parts as an aqueous suspension or as an emulsion, with the addition of 0.5% of an additive, at an application rate of 600 litres of water per hectare (converted). The test plants were placed in the greenhouse for ca. 3 weeks under optimum growth conditions, and then the effect of the preparations is assessed visually in comparison with untreated controls (herbicidal effect in percent (%): 100% effect=plants have died, 0% effect=as control plants).
# Matricaria inodora [16] = assay: Herbicidal post-emergence action, MATIN; details: assessed visually after ca. 3 weeks vs untreated controls
# Source text: as §2
# Amaranthus retroflexus [17] = assay: Herbicidal post-emergence action, AMARE; details: assessed visually after ca. 3 weeks vs untreated controls
# Source text: as §2
# Digitaria sanguinalis = assay: Herbicidal pre-emergence action, DIGSA; details: 1280 g/ha, visual grading after ca. 3 weeks vs untreated controls
# Source text: (§4) Seeds of mono- and dicotyledonous weed plants were sown in plastic pots (double sowings with one species of mono- and one species of dicotyledonous weed plants per pot), in sandy loam, and covered with soil. The compounds according to the invention, formulated in the form of wettable powders (WP) or as emulsifiable concentrates (EC), were applied to the surface of the covering soil as an aqueous suspension or as an emulsion, with the addition of 0.5% of an additive, at an application rate of 600 litres of water per hectare (converted). Following treatment, the pots were placed in a greenhouse and kept under optimum growth conditions for the test plants. The visual grading of the damage to the test plants is carried out after ca. 3 weeks in comparison to untreated controls (herbicidal effect in percent (%): 100% effect=plants have died, 0% effect=as control plants).
# Setaria viridis [18] = assay: Herbicidal pre-emergence action, SETVI; details: 1280 g/ha, visual grading after ca. 3 weeks vs untreated controls
# Source text: as §4
# Echinochloa crus-galli [19] = assay: Herbicidal pre-emergence action, ECHCG; details: 1280 g/ha, visual grading after ca. 3 weeks vs untreated controls
# Source text: as §4
# Alopecurus myosuroides [20] = assay: Herbicidal pre-emergence action, ALOMY; details: 1280 g/ha, visual grading after ca. 3 weeks vs untreated controls
# Source text: as §4
# Echinochloa crus-galli [21] = assay: Herbicidal post-emergence action, ECHCG; details: 1280 g/ha, assessed visually after ca. 3 weeks vs untreated controls
# Source text: as §3
# Abutilon theophrasti [22] = assay: Herbicidal pre-emergence action, ABUTH; details: 1280 g/ha, visual grading after ca. 3 weeks vs untreated controls
# Source text: as §4
SMILES,herbicidal effect STEME (Stellaria media [1]; 320 g/ha) [%],herbicidal effect STEME (Stellaria media [1]; 1280 g/ha) [%],herbicidal effect LOLRI (Lolium rigidum [2]; 1280 g/ha) [%],herbicidal effect KCHSC (Kochia scoparia [4]; 1280 g/ha) [%],herbicidal effect AMARE (Amaranthus retroflexus [6]; 1280 g/ha) [%],herbicidal effect LOLRI (Lolium rigidum [7]; 1280 g/ha) [%],herbicidal effect KCHSC (Kochia scoparia [8]; 1280 g/ha) [%],herbicidal effect POAAN (Poa annua [9]; 1280 g/ha) [%],herbicidal effect STEME (Stellaria media [10]; 320 g/ha) [%],herbicidal effect STEME (Stellaria media [10]; 1280 g/ha) [%],herbicidal effect MATIN (Matricaria inodora [12]; 320 g/ha) [%],herbicidal effect MATIN (Matricaria inodora [12]; 1280 g/ha) [%],herbicidal effect VERPE (Veronica persica [13]; 320 g/ha) [%],herbicidal effect VERPE (Veronica persica [13]; 1280 g/ha) [%],herbicidal effect POAAN (Poa annua [14]; 320 g/ha) [%],herbicidal effect POAAN (Poa annua [14]; 1280 g/ha) [%],herbicidal effect SETVI (Setaria viridis [15]) [%],herbicidal effect MATIN (Matricaria inodora [16]; 320 g/ha) [%],herbicidal effect MATIN (Matricaria inodora [16]; 1280 g/ha) [%],herbicidal effect AMARE (Amaranthus retroflexus [17]; 1280 g/ha) [%],also measured
O=C(Nc1ncns1)c1c(C(F)(F)F)ccnc1F [Example I-002],100,100,100,100,90,100,90,100,100,100,90,100,100,100,100,100,90,90,100,100,herbicidal effect LOLRI (Lolium rigidum [2]; 320 g/ha): 90%; herbicidal effect ABUTH (Abutilon theophrasti [3]): 90%; herbicidal effect KCHSC (Kochia scoparia [4]; 320 g/ha): 100%; herbicidal effect VERPE (Veronica persica [5]; 320 g/ha): 90%; herbicidal effect VERPE (Veronica persica [5]; 1280 g/ha): 100%; herbicidal effect LOLRI (Lolium rigidum [7]; 320 g/ha): 100%; herbicidal effect POAAN (Poa annua [9]; 320 g/ha): 100%; herbicidal effect ALOMY (Alopecurus myosuroides [11]; 320 g/ha): 100%; herbicidal effect ALOMY (Alopecurus myosuroides [11]; 1280 g/ha): 100%
O=C(Nc1ncns1)c1c(C(F)(F)F)ccnc1C1CC1 [Example I-005],100,100,–,90,100,100,100,100,90,90,–,100,100,100,100,100,–,–,–,–,herbicidal effect POAAN (Poa annua [9]; 320 g/ha): 100%; herbicidal effect DIGSA (Digitaria sanguinalis): 90%
"O=C(Nc1nc(Cl)ns1)c1c(C(F)(F)F)ccnc1F [Example I-009, N-(3-chloro-1,2,4-thiadiazol-5-yl)-2-fluoro-4-(trifluoromethyl)pyridine-3-carboxamide]",100,100,90,100,100,90,100,90,100,100,100,100,100,100,90,100,90,100,100,100,herbicidal effect ABUTH (Abutilon theophrasti [3]): 90%; herbicidal effect SETVI (Setaria viridis [18]): 90%; herbicidal effect KCHSC (Kochia scoparia [4]; 320 g/ha): 100%; herbicidal effect VERPE (Veronica persica [5]; 1280 g/ha): 90%; herbicidal effect AMARE (Amaranthus retroflexus [6]; 320 g/ha): 90%; herbicidal effect KCHSC (Kochia scoparia [8]; 320 g/ha): 90%; herbicidal effect ALOMY (Alopecurus myosuroides [11]; 320 g/ha): 90%; herbicidal effect ALOMY (Alopecurus myosuroides [11]; 1280 g/ha): 100%; herbicidal effect ECHCG (Echinochloa crus-galli [19]): 90%; herbicidal effect ALOMY (Alopecurus myosuroides [20]): 100%; herbicidal effect AMARE (Amaranthus retroflexus [17]; 320 g/ha): 100%
O=C(Nc1nc(Cl)ns1)c1cnccc1C(F)(F)F [Example I-015],–,–,–,90,–,–,90,–,100,100,–,–,90,90,–,–,90,90,100,100,–
CC(C)c1ccnc(F)c1C(=O)Nc1ncns1 [Example I-025],90,90,90,–,100,100,90,–,90,90,100,100,–,90,–,–,–,–,90,100,herbicidal effect SETVI (Setaria viridis [18]): 90%; herbicidal effect AMARE (Amaranthus retroflexus [6]; 320 g/ha): 90%; herbicidal effect LOLRI (Lolium rigidum [7]; 320 g/ha): 90%; herbicidal effect ECHCG (Echinochloa crus-galli [21]): 90%; herbicidal effect ABUTH (Abutilon theophrasti [22]): 100%; herbicidal effect AMARE (Amaranthus retroflexus [17]; 320 g/ha): 90%

# — patent publication US20240349726A1, “SUBSTITUTED 1,2,4-THIADIAZOLYL NICOTINAMIDES, SALTS OR N-OXIDES THEREOF AND THEIR USE AS HERBICIDALLY ACTIVE SUBSTANCES” (Bayer Aktiengesellschaft, priority 2021, published 2024)
